# Values quoted from earlier work, collected in PMC8260592 (Scientific Reports, 2021).
# Where two headings read alike, the source gives them in different places.
# Key:
# AChE = details: cited from earlier work
# MAO-B = details: ref 22; cited from earlier work
molecule,measurement,setting,value
COc1cc(C[C@H](C)[C@H](C)Cc2ccc3c(c2)OCO3)ccc1O [macelignan],IC50,AChE; ref 22,4.16 µM
same,IC50,MAO-B,7.42 µM
"COc1cc2oc(-c3ccc(O)cc3)cc(=O)c2c(O)c1[C@@H]1O[C@H](CO)[C@@H](O)[C@H](O)[C@H]1O [swertisin, isovitexin-7-O-methyl ether]",IC50,AChE; converted from µg/mL,71.9 µM
same,IC50 AChE,AChE; ref 49,32.09 µg/mL
O=C(/C=C/c1ccc(O)cc1)OC[C@H]1O[C@@H](Oc2c(-c3ccc(O)cc3)oc3cc(O)cc(O)c3c2=O)[C@H](O)[C@@H](O)[C@@H]1O [tiliroside],IC50,AChE; ref 50,23.5 µM
Oc1ccc([C@H]2c3c(O)cc(O)cc3[C@H]3c4c(cc(O)cc4[C@@H]2c2cc(/C=C/c4cc(O)cc5c4[C@H](c4cc(O)cc(O)c4)[C@@H](c4ccc(O)cc4)O5)ccc2O)O[C@@H]3c2ccc(O)cc2)cc1 [vitisin A],IC50,AChE; ref 56,1.04 µM
COc1c(O)cc2oc3cc(O)c(CC=C(C)C)c(O)c3c(=O)c2c1CC=C(C)C [α-mangostin],IC50,AChE; ref 53,2.48 µM
same,IC50,AChE; ref 54,6.3 µM
heyneanol A,IC50,AChE; ref 56,1.66 µM
